Measurements from US20230365553A1, “COMPOUNDS AND COMPOSITIONS FOR TREATING CONDITIONS ASSOCIATED WITH STING ACTIVITY” (IFM Due, Inc., priority 2020, published 2023).

target: T1, STING (Homo sapiens, UniProt Q86WV6, G230A/H232R/R293Q/R71H); test: STING reporter assay: luciferase reporter activity in THP1-Dual KO-IFNAR2 cells stimulated with 2′3′cGAMP; type: cell-based; settings: 15 μM 2′3′cGAMP, 24h, read-out: hSTING EC50
T1 construct: host or cells: THP1-Dual KO-IFNAR2 cells
Description: STING pathway activation by the compounds described herein was measured using THP 1-Dual™ cells (KO-IFNAR2).
THP1-Dual™ KO-IFNAR2 Cells (obtained from invivogen) were maintained in RPMI, 10% FCS, 5 ml P/S, 2 mM L-glut, 10 mM Hepes, and 1 mM sodium pyruvate. Compounds were spotted in empty 384 well tissue culture plates (Greiner 781182) by Echo for a final concentration of 0.0017-100 μM. Cells were plated into the TC plates at 40 μL per well, 2×10E6 cells/mL. For activation with STING ligand, 2′3′cGAMP (MW 718.38, obtained from Invivogen), was prepared in Optimem media.
The following solutions were prepared for each 1×384 plate: • Solution A: 2 mL Optimem with one of the following stimuli: • 60 μL of 10 mM 2′3′cGAMP→150 μM stock • Solution B: 2 mL Optimem with 60 μL Lipofectamine 2000→Incubate 5 min at RT
2 mL of solution A and 2 ml Solution B was mixed and incubated for 20 min at room temperature (RT). 20 μL of transfection solution (A+B) was added on top of the plated cells, with a final 2′3′cGAMP concentration of 15 μM. The plates were then centrifuged immediately at 340 g for 1 minute, after which they were incubated at 37° C., 5% CO2, >98% humidity for 24h. Luciferase reporter activity was then measured. EC50 values were calculated by using standard methods known in the art.
Luciferase reporter assay: 10 μL of supernatant from the assay was transferred to white 384-plate with flat bottom and squared wells. One pouch of QUANTI-Luc™ Plus was dissolved in 25 mL of water. 100 μL of QLC Stabilizer per 25 mL of QUANTI-Luc™ Plus solution was added. 50 μL of QUANTI-Luc™ Plus/QLC solution per well was then added. Luminescence was measured on a Platereader (e.g., Spectramax I3X (Molecular Devices GF3637001)).
Luciferase reporter activity was then measured. EC50 values were calculated by using standard methods known in the art.

T1 sequence (Q86WV6 whole entry R71H/G230A/H232R/R293Q): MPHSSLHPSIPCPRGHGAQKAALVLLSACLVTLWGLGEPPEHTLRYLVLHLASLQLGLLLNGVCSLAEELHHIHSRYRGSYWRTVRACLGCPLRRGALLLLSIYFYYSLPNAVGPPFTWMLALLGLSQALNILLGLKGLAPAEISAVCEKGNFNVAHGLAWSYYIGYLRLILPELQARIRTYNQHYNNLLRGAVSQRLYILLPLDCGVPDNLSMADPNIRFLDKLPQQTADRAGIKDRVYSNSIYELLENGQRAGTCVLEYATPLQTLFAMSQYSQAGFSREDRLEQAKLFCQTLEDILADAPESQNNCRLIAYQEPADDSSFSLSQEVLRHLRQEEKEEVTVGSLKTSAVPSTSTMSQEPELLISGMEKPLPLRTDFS

SMILES | EC50 [nM]
CCc1ccc(-n2cc(-c3ccc4[nH]cc(NC(=O)/C=C/COC)c4c3)cn2)cc1 [Compound 130, (E)-N-(5-(1-(4-ethylphenyl)-1H-pyrazol-4-yl)-1H-indol-3-yl)-4-methoxybut-2-enamide] | 200 to 1000
CCC(=O)Nc1c[nH]c2ccc(-c3cnn(-c4ccc(C#N)cc4)c3)cc12 [Compound 101, N-(5-(1-(4-cyanophenyl)-1H-pyrazol-4-yl)-1H-indol-3-yl)propionamide] | 200 to 1000
CC1(C(=O)Nc2c[nH]c3ccc(-c4cnn(-c5ccc(C(F)(F)F)cc5)c4)cc23)COC1 [Compound 232, 3-methyl-N-(5-(1-(4-(trifluoromethyl)phenyl)-1H-pyrazol-4-yl)-1H-indol-3-yl)oxetane-3-carboxamide] | 200 to 1000
O=C(Nc1c[nH]c2ccc(-c3cnn(-c4ccc(C(F)(F)F)cc4)c3)cc12)C1CC(F)(F)C1 [Compound 236, 3,3-difluoro-N-(5-(1-(4-(trifluoromethyl)phenyl)-1H-pyrazol-4-yl)-1H-indol-3-yl)cyclobutane-1-carboxamide] | 200 to 1000
CCc1ccc(-n2cc(-c3ccc4[nH]cc(NC(=O)CN(C)C)c4c3)cn2)cc1 [Compound 125, 2-(dimethylamino)-N-(5-(1-(4-ethylphenyl)-1H-pyrazol-4-yl)-1H-indol-3-yl)acetamide] | 5000 to 100000
O=C(Nc1c[nH]c2ccc(-c3cnn(Cc4ccc(C(F)(F)F)nc4)c3)cc12)C1CCC1 [Compound 191, N-(5-(1-((6-(trifluoromethyl)pyridin-3-yl)methyl)-1H-pyrazol-4-yl)-1H-indol-3-yl)cyclobutanecarboxamide] | 200 to 1000
CCC(=O)Nc1c[nH]c2ccc(-c3cnn(-c4cccc(Cl)c4)c3)cc12 [Compound 149, N-(5-(1-(3-chlorophenyl)-1H-pyrazol-4-yl)-1H-indol-3-yl)propionamide] | 200 to 1000
O=C(Nc1c[nH]c2cnc(-c3cnn(-c4ccc(C(F)(F)F)cc4)c3)cc12)C1CCC1 [Compound 255, N-(5-(1-(4-(trifluoromethyl)phenyl)-1H-pyrazol-4-yl)-1H-pyrrolo[2,3-c]pyridin-3-yl)cyclobutanecarboxamide] | 5000 to 100000
CC(=O)NC(C)C(=O)Nc1c[nH]c2ccc(-c3cnn(-c4ccc(C(F)(F)F)cc4)c3)cc12 (stereo not drawn) [Compound 215, 2-acetamido-N-(5-(1-(4-(trifluoromethyl)phenyl)-1H-pyrazol-4-yl)-1H-indol-3-yl)propanamide] | 1000 to 5000
CC(=O)N(C)CC(=O)Nc1c[nH]c2ccc(-c3cnn(-c4ccc(C(F)(F)F)cc4)c3)cc12 [Compound 225, N-methyl-N-(2-oxo-2-((5-(1-(4-(trifluoromethyl)phenyl)-1H-pyrazol-4-yl)-1H-indol-3-yl)amino)ethyl)acetamide] | 1000 to 5000
CC1=NOC(C)(C(=O)Nc2c[nH]c3ccc(-c4cnn(-c5ccc(C(F)(F)F)cc5)c4)cc23)C1 (stereo not drawn) [Compound 230, 3,5-dimethyl-N-(5-(1-(4-(trifluoromethyl)phenyl)-1H-pyrazol-4-yl)-1H-indol-3-yl)-4,5-dihydroisoxazole-5-carboxamide] | 5000 to 100000
O=C(Nc1c[nH]c2ccc(-c3cnn(-c4ccc(C(F)(F)F)cc4)c3)cc12)C1CC(F)C1 (stereo not drawn) [Compound 190, 3-fluoro-N-(5-(1-(4-(trifluoromethyl)phenyl)-1H-pyrazol-4-yl)-1H-indol-3-yl)cyclobutane-1-carboxamide] | 5000 to 100000
CC(=O)Nc1c[nH]c2ccc(-c3cnn(-c4ccc(F)c(F)c4)c3)cc12 [Compound 170, N-(5-(1-(3,4-difluorophenyl)-1H-pyrazol-4-yl)-1H-indol-3-yl)acetamide] | 1000 to 5000
CCC(=O)Nc1c[nH]c2ccc(-c3cc(C#N)cs3)cc12 [Compound 136, N-(5-(4-cyanothiophen-2-yl)-1H-indol-3-yl)propionamide] | 1000 to 5000
CS(=O)(=O)CCC(=O)Nc1c[nH]c2ccc(-c3cnn(-c4ccc(C(F)(F)F)cc4)c3)cc12 [Compound 240, 3-(methylsulfonyl)-N-(5-(1-(4-(trifluoromethyl)phenyl)-1H-pyrazol-4-yl)-1H-indol-3-yl)propanamide] | 200 to 1000
CCc1ccc(-n2cc(-c3ccc4[nH]cc(NC(=O)CO)c4c3)cn2)cc1 [Compound 126, N-(5-(1-(4-ethylphenyl)-1H-pyrazol-4-yl)-1H-indol-3-yl)-2-hydroxyacetamide] | 200 to 1000
CCC(=O)Nc1c[nH]c2ccc(-c3cnn(-c4ccc(C(F)(F)F)cc4)c3)cc12 [Compound 139, N-(5-(1-(4-(trifluoromethyl)phenyl)-1H-pyrazol-4-yl)-1H-indol-3-yl)propionamide] | 200 to 1000

SMILES | EC50 [nM]
CCC(=O)Nc1c[nH]c2ccc(N3CCN(c4ccccc4)CC3)cc12 [Compound 131, N-(5-(4-phenylpiperazin-1-yl)-1H-indol-3-yl)propionamide] | 5000 to 100000
CCC(=O)Nc1c[nH]c2ccc(-c3cnn(-c4ccc(CC)cc4)c3)nc12 [Compound 164, N-(5-(1-(4-ethylphenyl)-1H-pyrazol-4-yl)-1H-pyrrolo[3,2-b]pyridin-3-yl)propionamide] | 5000 to 100000
CCC(=O)Nc1c[nH]c2ccc(-c3ccnn3-c3ccc(C(F)(F)F)cc3)cc12 [Compound 116, N-(5-(1-(4-(trifluoromethyl)phenyl)-1H-pyrazol-5-yl)-1H-indol-3-yl)propionamide] | 5000 to 100000
CCc1ccc(-n2cc(-c3ccc4[nH]cc(NC(=O)C(O)C(F)(F)F)c4c3)cn2)cc1 (stereo not drawn) [Compound 166, N-(5-(1-(4-ethylphenyl)-1H-pyrazol-4-yl)-1H-indol-3-yl)-3,3,3-trifluoro-2-hydroxypropanamide] | 1000 to 5000
O=C(Nc1c[nH]c2ccc(-c3cnn(-c4ccc(C(F)(F)F)cc4)c3)cc12)C1(F)CCOCC1 [Compound 233, 4-fluoro-N-(5-(1-(4-(trifluoromethyl)phenyl)-1H-pyrazol-4-yl)-1H-indol-3-yl)tetrahydro-2H-pyran-4-carboxamide] | 200 to 1000
CN1CC(C(=O)Nc2c[nH]c3ccc(-c4cnn(-c5ccc(C(F)(F)F)cc5)c4)cc23)CCC1=O (stereo not drawn) [Compound 224, 1-methyl-6-oxo-N-(5-(1-(4-(trifluoromethyl)phenyl)-1H-pyrazol-4-yl)-1H-indol-3-yl)piperidine-3-carboxamide] | 1000 to 5000
O=C(Nc1c[nH]c2ccc(-c3cnn(-c4ccc(C(F)(F)F)cc4)c3)cc12)C1(F)CCC1 [Compound 241, 1-fluoro-N-(5-(1-(4-(trifluoromethyl)phenyl)-1H-pyrazol-4-yl)-1H-indol-3-yl)cyclobutane-1-carboxamide] | 200 to 1000
CCC(=O)Nc1c[nH]c2ccc(C3=CCN(c4ccccn4)CC3)cc12 [Compound 140, N-(5-(3,6-dihydro-2H-[1,2′-bipyridin]-4-yl)-1H-indol-3-yl)propionamide] | 5000 to 100000
CC(=O)Nc1c[nH]c2ccc(-c3cnn(-c4ccc(C(F)(F)F)cc4Cl)c3)cc12 [Compound 172, N-(5-(1-(2-chloro-4-(trifluoromethyl)phenyl)-1H-pyrazol-4-yl)-1H-indol-3-yl)acetamide] | 40 to 200
C[C@@H](O)C(=O)Nc1c[nH]c2cc(F)c(-c3cnn(-c4ccc(C(F)(F)F)cc4)c3)cc12 [Compound 192, (R)-N-(6-fluoro-5-(1-(4-(trifluoromethyl)phenyl)-1H-pyrazol-4-yl)-1H-indol-3-yl)-2-hydroxypropanamide] | 200 to 1000
CCC(=O)Nc1c[nH]c2ccc(-c3ccc(N4CCCC4)nc3)cc12 [Compound 147, N-(5-(6-(pyrrolidin-1-yl)pyridin-3-yl)-1H-indol-3-yl)propionamide] | 5000 to 100000
CC(C)(CO)C(=O)Nc1c[nH]c2ccc(-c3cnn(-c4ccc(C(F)(F)F)cc4)c3)cc12 [Compound 201, 3-hydroxy-2,2-dimethyl-N-(5-(1-(4-(trifluoromethyl)phenyl)-1H-pyrazol-4-yl)-1H-indol-3-yl)propanamide] | 1000 to 5000
O=C(Nc1c[nH]c2ccc(-c3cnn(Cc4ccc(C(F)(F)F)cc4)c3)cc12)C1CCC1 [Compound 258, N-(5-(1-(4-(trifluoromethyl)benzyl)-1H-pyrazol-4-yl)-1H-indol-3-yl)cyclobutanecarboxamide] | 40 to 200
CCc1ccc(-n2cc(-c3ccc4[nH]cc(NC(=O)COC)c4c3)cn2)cc1 [Compound 106, N-(5-(1-(4-ethylphenyl)-1H-pyrazol-4-yl)-1H-indol-3-yl)-2-methoxyacetamide] | 40 to 200
CC(C)(O)CC(=O)Nc1c[nH]c2ccc(-c3cnn(-c4ccc(C(F)(F)F)cc4)c3)cc12 [Compound 173, 3-hydroxy-3-methyl-N-(5-(1-(4-(trifluoromethyl)phenyl)-1H-pyrazol-4-yl)-1H-indol-3-yl)butanamide] | 200 to 1000
CC(C)(C)C(=O)Nc1c[nH]c2ccc(-c3cnn(-c4ccc(C(F)(F)F)cc4)c3)cc12 [Compound 216, N-(5-(1-(4-(trifluoromethyl)phenyl)-1H-pyrazol-4-yl)-1H-indol-3-yl)pivalamide] | 1000 to 5000
